The test system of data set [1] is laboratory strain of HIV-1. The data set is described as follows: Antiviral activity against HIV (AV), p24 in infected activated primary T cells. The data set is classed as cell-based. As to conditions: for IC50: Human immunodeficiency virus 1, T-cell, read-out: AV50 (Inhibitory concentration 50% for antiviral activity); for antiviral and antiproliferative activity and cytotoxicity profile (in words): summary of AV, AP and cytotoxicity assays. How it is done: Activated primary T cells are infected with a laboratory strain of HIV-1, then cultured and exposed to different concentrations of the test compounds. HIV replication is analysed by measuring the viral protein p24 and expressed as percentage of untreated control. Inhibition of viral replication (AV) is then calculated (AV=100 minus the % p24 compared to control, AV of control=0%). Inhibitory concentration 50% for antiviral activity (AV50) is calculated.
(§1) In Tables 2, 3 and 4, ND means Not Determined.

A further data set concerns Primary T cells. The data set is described as follows: Antiproliferative activity (AP), mitotic index by flow cytometry. The conditions noted are these: T-cell, read-out: AP50 (Inhibitory concentration 50% for antiproliferative capacity). The data set is classed as cell-based. How it is done: Primary T cells are cultured and exposed to different concentrations of the test compounds. Cell proliferation is analysed by measuring mitotic index (ie the number of cell divisions a population of cells undergoes) through flow cytometry based techniques. Mitotic index is expressed as percentage of untreated control. Inhibition of cell proliferation (AP) is then calculated (AP=100 minus % mitotic index compared to control, AP of control=0%). Inhibitory concentration 50% for antiproliferative capacity (AP50) is calculated.
as §1
For orientation: Flow cytometry measures light scatter and fluorescence of single cells or particles in a stream.

SMILES strings stand for the structures. Where two headings read alike, the source gives them in different places.

Experimental findings from patent US10294218B2 (VIROSTATICS SRL, priority 2012, dated 2019) are described below.

Take `COc1ccccc1-c1cc(Nc2ccc(Cl)c(CO)c2)ncn1` [Example 6, (2-Chloro-5-(6-(2-methoxyphenyl)pyrimidin-4-ylamino)phenyl)methanol]: the IC50 is over 1500 nM in data set [1] and over 500 nM with Primary T cells (primary T cells, mitotic index).

Turning to `COc1ccc(Nc2cc(-c3ccccc3OC)ncn2)cc1NS(C)(=O)=O` [Example 9, N-(2-Methoxy-5-(6-(2-methoxyphenyl)pyrimidin-4-ylamino)phenyl)methanesulfonamide], the IC50 in data set [1] is under 1500 nM; in the data set with Primary T cells (primary T cells, mitotic index), over 1500 nM.

On to `CNS(=O)(=O)Nc1cc(Nc2cc(-c3ccccc3OC)ncn2)ccc1OC` [Example 10, (2-Methoxy-5-(6-(2-methoxyphenyl)pyrimidin-4-ylamino)phenyl)(methylsulfamoyl)amine], for which, in data set [1], the IC50 is 800 nM; the “antiviral and antiproliferative activity and cytotoxicity profile (in words)” value was “good antiviral and antiproliferative activity and a good cytotoxicity profile”. In addition, the IC50 with Primary T cells (primary T cells, mitotic index) turned out to be 500 nM.

As for `COc1ccc(Nc2cc(-c3ccccc3OC)ncn2)cc1NS(=O)(=O)NC1CCCCC1` [Example 13, (2-Methoxy-5-(6-(2-methoxyphenyl)pyrimidin-4-ylamino)phenyl) (cyclohexylsulfamoyl)amine], the IC50 in data set [1] was found to be 300 nM; with Primary T cells (primary T cells, mitotic index), 600 nM. In addition, in data set [1], the “antiviral and antiproliferative activity and cytotoxicity profile (in words)” value was “good antiviral and antiproliferative activity and a good cytotoxicity profile”.

For the compound `COc1ccccc1-c1cc(Nc2ccc(Cl)c(C(=O)N3CCCC3)c2)ncn1` [Example 15, (2-Chloro-5-(6-(2-methoxyphenyl)pyrimidin-4-ylamino)phenyl)(pyrrolidin-1-yl)methanone], the IC50 in the data set with Primary T cells (primary T cells, mitotic index) is over 500 nM.

On to `COc1ccccc1-c1cc(Nc2ccc(Cl)c(Cn3cnc4ccccc43)c2)ncn1` [Example 16, N-(3-((1H-benzo[d]imidazol-1-yl)methyl)-4-chlorophenyl)-6-(2-methoxyphenyl)pyrimidin-4-amine], for which the IC50 was 110 nM in data set [1] and 100 nM in the data set on Primary T cells. Further, in data set [1], the “antiviral and antiproliferative activity and cytotoxicity profile (in words)” value was “good antiviral and antiproliferative activity and a good cytotoxicity profile”.

For the compound `COc1ccccc1-c1cc(Nc2ccc(N3CCN(C)CC3)c(CO)c2)ncn1` [Example 17], the IC50 in data set [1] is over 1500 nM; in the data set with Primary T cells (primary T cells, mitotic index), 350 nM.

With `CCOC(=O)c1cc(Nc2cc(-c3ccccc3OC)ncn2)ccc1N1CCOCC1` [Example 18, Ethyl 5-(6-(2-methoxyphenyl)pyrimidin-4-ylamino)-2-morpholinobenzoate], the IC50 was over 1500 nM in data set [1] and over 500 nM with Primary T cells (primary T cells, mitotic index).

Regarding `COc1ccccc1-c1cc(Nc2ccc(N3CCOCC3)c(CO)c2)ncn1` [Example 19, (5-(6-(2-Methoxyphenyl)pyrimidin-4-ylamino)-2-morpholinophenyl)methanol], the IC50 in data set [1] is 1000 nM; in the data set on Primary T cells (primary T cells, mitotic index) it was over 500 nM.

With `COC(=O)c1cc(Nc2cc(-c3ccccc3OC)ncn2)ccc1O` [Example 21, Methyl 2-hydroxy-5-(6-(2-methoxyphenyl)pyrimidin-4-ylamino)benzoate], the IC50 in data set [1] is under 1500 nM; in the data set on Primary T cells (primary T cells, mitotic index), over 500 nM.

Consider `COc1ccc(Nc2cc(-c3ccccc3OC)ncn2)cc1F` [Example 22, N-(3-Fluoro-4-methoxyphenyl)-6-(2-methoxyphenyl)pyrimidin-4-amine], for which the IC50 is under 1500 nM in data set [1] and over 500 nM in the data set on Primary T cells (primary T cells, mitotic index).

For `COc1ccc(Nc2cc(-c3ccccc3OC)ncn2)cc1C(=O)NCc1ccccc1` [Example 23, N-Benzyl-2-methoxy-5-(6-(2-methoxyphenyl)pyrimidin-4-ylamino)benzamide], the IC50 (in data set [1]; in the data set on Primary T cells) was over 500 nM each time.

For the compound `COc1ccc(Nc2cc(-c3ccccc3OC)ncn2)cc1CO` [Example 24, (2-Methoxy-5-(6-(2-methoxyphenyl)pyrimidin-4-ylamino)phenyl)methanol], the IC50 (in data set [1]; in the data set on Primary T cells) was over 500 nM throughout.

In the case of `CNC(=O)c1cc(Nc2cc(-c3ccccc3OC)ncn2)ccc1OC` [Example 25, 2-Methoxy-5-(6-(2-methoxyphenyl)pyrimidin-4-ylamino)-N-methylbenzamide], the IC50 (in data set [1]; in the data set with Primary T cells) was over 500 nM throughout.

Turning to `COc1ccc(Nc2cc(-c3ccccc3OC)ncn2)cc1OC(=O)C(C)(C)C` [Example 26, 2-methoxy-5-(6-(2-methoxyphenyl)pyrimidin-4-ylamino)phenyl pivalate], the IC50 in data set [1] (HIV-1 infected activated primary T cells, p24) was found to be 100 nM; in the data set with Primary T cells (primary T cells, mitotic index), 100 nM. Also, the “antiviral and antiproliferative activity and cytotoxicity profile (in words)” value in data set [1] is “good antiviral and antiproliferative activity and a good cytotoxicity profile”.

`COc1ccc(Nc2cc(-c3ccccc3OC)ncn2)cc1C(=O)NCc1ccncc1` [Example 28, 2-Methoxy-5-(6-(2-methoxyphenyl)pyrimidin-4-ylamino)-N-(pyridin-4-ylmethyl)benzamide]: the IC50 (in data set [1]; in the data set with Primary T cells) was over 500 nM throughout.

Take `COc1ccc(Nc2cc(-c3ccccc3OC)ncn2)cc1C=O` [Example 29, 2-Methoxy-5-(6-(2-methoxyphenyl)pyrimidin-4-ylamino)benzaldehyde]: the IC50 was over 500 nM in data set [1] and over 500 nM with Primary T cells (primary T cells, mitotic index).

For the compound `COC(=O)c1cc(Nc2cc(-c3ccccc3OC)ncn2)ccc1OC` [Example 30, Methyl 2-methoxy-5-(6-(2-methoxyphenyl)pyrimidin-4-ylamino)benzoate], the IC50 was over 1500 nM in data set [1] and over 500 nM with Primary T cells (primary T cells, mitotic index).

Regarding `COc1ccc(Nc2cc(-c3ccccc3OC)ncn2)cc1Cn1cnc2ccccc21` [Example 31, N-(3-((1H-Benzo[d]imidazol-1-yl)methyl)-4-methoxyphenyl)-6-(2-methoxyphenyl)pyrimidin-4-amine], the figures for the IC50 (in data set [1]; with Primary T cells) were 200 nM and 350 nM, respectively. In data set [1], the “antiviral and antiproliferative activity and cytotoxicity profile (in words)” value is “good antiviral and antiproliferative activity and a good cytotoxicity profile”.

With `COc1ccc(Nc2cc(-c3ccccc3OC)ncn2)cc1O` [Example 32, 2-Methoxy-5-(6-(2-methoxyphenyl)pyrimidin-4-ylamino)phenol], in data set [1], the IC50 stood at 150 nM; the “antiviral and antiproliferative activity and cytotoxicity profile (in words)” value was “good antiviral and antiproliferative activity and a good cytotoxicity profile”. Besides, in the data set with Primary T cells (primary T cells, mitotic index), the IC50 is 70 nM.

For `COc1ccc(Nc2cc(-c3ccccc3OC)ncn2)cc1C(=O)NN` [Example 33, 2-Methoxy-5-(6-(2-methoxyphenyl)pyrimidin-4-ylamino)benzohydrazide], the IC50 in the data set on Primary T cells is 2000 nM.

On to `COc1ccc(Nc2cc(-c3ccccc3OC)ncn2)cc1CNc1ccccc1` [Example 34, N-(4-Methoxy-3-((phenylamino)methyl)phenyl)-6-(2-methoxyphenyl)pyrimidin-4-amine], for which, in the data set with Primary T cells, the IC50 was over 5000 nM.

Regarding `COc1ccccc1-c1cc(Nc2ccc(N(C)C)c(Cn3cnc4ccccc43)c2)ncn1` [Example 42, 2-((1H-Benzo[d]imidazol-1-yl)methyl)-N4-(6-(2-methoxyphenyl)pyrimidin-4-yl)-N1,N1-dimethylbenzene-1,4-diamine], in the data set on Primary T cells, the IC50 came to 1800 nM.

In the case of `COc1ccccc1-c1cc(Nc2ccc(Cl)c(C(N)=O)c2)ncn1` [Example 44, 2-Chloro-5-(6-(2-methoxyphenyl)pyrimidin-4-ylamino)benzamide], in the data set with Primary T cells (primary T cells, mitotic index), the IC50 was 5000 nM.
